According to PMC11061149, “Protein mimetic 2D FAST rescues alpha synuclein aggregation mediated early and post disease Parkinson’s phenotypes” (Nature Communications, 2024):
Several values for one entry are separate records, joined by “and”; a condition that tells them apart may be missing. Equal entries are not always repeated.

Assays:
UA196 worms = assay: Motility assay of UA196 worms; type: in vivo, C. elegans
Experimental: Briefly, all worm strains were bleached at the same time and the eggs were incubated on PLATE 1. On day two, the worms were divided into two batches. […] The liquid media for PLATE 4 A/B was prepared with 67.28% (v/v) of M9 buffer, 75 μM FUDR, 0.1% of 1 M magnesium sulfate (v/v), 0.1% of 1 M calcium chloride (v/v), 2.5% of 1 M potassium phosphate solution (pH 6, v/v), and 30% (v/v) of OP50 (0.5 OD600nm). […] To test the effect of each ligand on disease worm strains (NL5901 or UA196), there were four conditions were used in PLATE 4 A/B: […] The assay was started on day four using the WMicroTracker ARENA plate reader (Phylumtech, Santa Fe, Argentina) at 20 °C for 1 h per day over a 14-day period at intervals of 24 h. The WMicroTracker ARENA plate reader uses a large array of infrared light microbeams in each well of the plate to detect the interference caused by the movement of the worms. The output by the ARENA plate reader is an average of the overall movement of all worms present in each well, which is denoted as the motility of the worms in each well. […] After collecting the data each day, the PLATE 4 A/B was again placed on the shaker (100 rpm) at 20 °C in the incubator. The PLATE 4 A/B was on the on the shaker (100 rpm) at 20 °C in the incubator the whole duration of the experiment except only when the reading was collected on the WMicroTracker ARENA plate reader for 1 h.

15N-labeled αS monomer = target: T1, 15N-labeled αS monomer (Homo sapiens, UniProt P37840); assay: 2D 1H-15N HSQC NMR of 15N-labeled αS with ligand; type: binding; details: 70 µM 15N-αS + equimolar ligand, V/V0
T1 construct: purchased rpeptide, Bogart, GA
Experimental: A solution of ^15N αS was prepared by resuspending 1 mg of uniformly labeled ^15N αS (rpeptide, Bogart, GA) in 1 mL Milli-Q water to yield a 70 μM αS solution in 20 mM Tris-HCl pH 7.4, 100 mM NaCl. The protein was buffer exchanged to Milli-Q water, lyophilized, and stored at –80 °C. For the preparation of NMR experiments, the lyophilized ^15N αS powder was dissolved in the NMR buffer (300 μL, 20 mM NaPO4 pH 6.4, 5% D2O, v/v) to make a final concentration of 70 μM. The protein concentration was confirmed with a NanoDrop One (Thermo Scientific, Waltham, MA) at 280 nm using an extinction coefficient of 5960 M^-1cm^-1. The solutions were transferred into Shigemi BMS-005 NMR tube (Shigemi, Tokyo, Japan) and the two-dimensional ^1H-^15N HSQC NMR experiments were performed on a 600 MHz Bruker Avance Neo (CU Anschutz, NMR core facility, CO) instrument equipped with a triple resonance HCN cryoprobe. Data was collected at 12 °C on Topspin 4.9.0 software (Bruker, Billerica, MA). The HSQC spectra were recorded using a data matrix consisting of 1024 (t2, ^1H) × 160 (t1, ^15N) complex points. Resonance assignments were determined utilizing a previous publication[83] and the data analysis was performed using MestReNova software.
For the HSQC experiments titrating NS132 into ^15N αS, the same experimental conditions were used as above. Incrementally, NS132 was added to a single ^15N αS solution, mixed, kept at r.t. for 10 min and HSQC was recorded under the conditions stated above. For HSQC experiments containing pre-formed fibrils (PFF) of αS, 5.4 eq. of PFF solution (500 μM) was added to monomeric ^15N αS solution, and the spectra was recorded as previously stated.

Change in volume of peaks, αS residue A11 (15N-labeled αS monomer): 0.12
Change in volume of peaks, αS residue A17 (15N-labeled αS monomer): 0.33
Change in volume of peaks, αS residue A18 (15N-labeled αS monomer): 0.55
Change in volume of peaks, αS residue A19 (15N-labeled αS monomer): 0.15
Change in volume of peaks, αS residue A56 (15N-labeled αS monomer): 0.13
Change in volume of peaks, αS residue A78 (15N-labeled αS monomer): 0.03
Change in volume of peaks, αS residue A89 (15N-labeled αS monomer): 0.12
Change in volume of peaks, αS residue A90 (15N-labeled αS monomer): 0.08
Change in volume of peaks, αS residue A107 (15N-labeled αS monomer): 0.04
Change in volume of peaks, αS residue E13 (15N-labeled αS monomer): 0.05
Change in volume of peaks, αS residue E20 (15N-labeled αS monomer): 0.17
Change in volume of peaks, αS residue E46 (15N-labeled αS monomer): 0.14
Change in volume of peaks, αS residue G14 (15N-labeled αS monomer): 0.1
Change in volume of peaks, αS residue G31 (15N-labeled αS monomer): 0.08
Change in volume of peaks, αS residue G36 (15N-labeled αS monomer): 0.1
Change in volume of peaks, αS residue G41 (15N-labeled αS monomer): 0.31
Change in volume of peaks, αS residue G68 (15N-labeled αS monomer): 0.06
Change in volume of peaks, αS residue G93 (15N-labeled αS monomer): 0.04
Change in volume of peaks, αS residue H50 (15N-labeled αS monomer): 0.52
Change in volume of peaks, αS residue K10 (15N-labeled αS monomer): 0.12
Change in volume of peaks, αS residue K12 (15N-labeled αS monomer): 0.77
Change in volume of peaks, αS residue K43 (15N-labeled αS monomer): 0.42
Change in volume of peaks, αS residue L38 (15N-labeled αS monomer): 0.05
Change in volume of peaks, αS residue L100 (15N-labeled αS monomer): 0.09
Change in volume of peaks, αS residue S42 (15N-labeled αS monomer): 0.46
Change in volume of peaks, αS residue S129 (15N-labeled αS monomer): 0.14
Change in volume of peaks, αS residue T22 (15N-labeled αS monomer): 0.03
Change in volume of peaks, αS residue T59 (15N-labeled αS monomer): 0.26
Change in volume of peaks, αS residue T64 (15N-labeled αS monomer): 0.08
Change in volume of peaks, αS residue T75 (15N-labeled αS monomer): 0.22
Change in volume of peaks, αS residue V3 (15N-labeled αS monomer): 0.04
Change in volume of peaks, αS residue V15 (15N-labeled αS monomer): 0.61
Change in volume of peaks, αS residue V16 (15N-labeled αS monomer): 0.09
Change in volume of peaks, αS residue V37 (15N-labeled αS monomer): 0.08
Change in volume of peaks, αS residue V40 (15N-labeled αS monomer): 0.13
Change in volume of peaks, αS residue V66 (15N-labeled αS monomer): 0.04
Change in volume of peaks, αS residue V77 (15N-labeled αS monomer): 0.16
Change in volume of peaks, αS residue V82 (15N-labeled αS monomer): 0.09
Change in volume of peaks, αS residue Y39 (15N-labeled αS monomer): 0.21
Structure (SMILES): Cc1ccc(NC(=O)c2ccc(NC(=O)c3ccc([N+](=O)[O-])c(NCCc4c[nH]c5ccccc45)n3)c(NCC3CCCCC3)n2)c(OCC(=O)O)n1 [NS132]
motility of UA196 worms, in words (UA196 worms; 50 µM ligand (day two and day four), during the aging process): noticeable rescue
Motility (activity counts) (UA196 worms; UA196+NS132, Day 4, per trial): 206 and 197 and 180 and 188
Motility (activity counts) (UA196 worms; UA196+NS132, Day 5, per trial): 205 and 178 and 179 and 183
Motility (activity counts) (UA196 worms; UA196+NS132, Day 6, per trial): 161 and 191 and 157 and 201
Motility (activity counts) (UA196 worms; UA196+NS132, Day 7, per trial): 139 and 152 and 174 and 165
Motility (activity counts) (UA196 worms; UA196+NS132, Day 8, per trial): 150 and 125 and 135 and 134
Motility (activity counts) (UA196 worms; UA196+NS132, Day 9, per trial): 143 and 94 and 105 and 78
Motility (activity counts) (UA196 worms; UA196+NS132, Day 10, per trial): 97 and 68 and 112
Motility (activity counts) (UA196 worms; UA196+NS132, Day 13, per trial): 24 and 17 and 22 and 19
Motility (activity counts) (UA196 worms; UA196+NS132, Day 14, per trial): 19 and 14 and 23
